Legend:
human TLR9 = target: T1, human TLR9 (Homo sapiens, UniProt Q9NR96); assay: TLR9 inhibition reporter assay (HEK-Blue SEAP reporter); assay type: cell-based; conditions: HEK-Blue cells overexpressing human TLR9; ODN2006 5 nM; 22 hour incubation
T1 construct: host or cells: HEK-Blue cells
T1 sequence (Q9NR96 26-1032): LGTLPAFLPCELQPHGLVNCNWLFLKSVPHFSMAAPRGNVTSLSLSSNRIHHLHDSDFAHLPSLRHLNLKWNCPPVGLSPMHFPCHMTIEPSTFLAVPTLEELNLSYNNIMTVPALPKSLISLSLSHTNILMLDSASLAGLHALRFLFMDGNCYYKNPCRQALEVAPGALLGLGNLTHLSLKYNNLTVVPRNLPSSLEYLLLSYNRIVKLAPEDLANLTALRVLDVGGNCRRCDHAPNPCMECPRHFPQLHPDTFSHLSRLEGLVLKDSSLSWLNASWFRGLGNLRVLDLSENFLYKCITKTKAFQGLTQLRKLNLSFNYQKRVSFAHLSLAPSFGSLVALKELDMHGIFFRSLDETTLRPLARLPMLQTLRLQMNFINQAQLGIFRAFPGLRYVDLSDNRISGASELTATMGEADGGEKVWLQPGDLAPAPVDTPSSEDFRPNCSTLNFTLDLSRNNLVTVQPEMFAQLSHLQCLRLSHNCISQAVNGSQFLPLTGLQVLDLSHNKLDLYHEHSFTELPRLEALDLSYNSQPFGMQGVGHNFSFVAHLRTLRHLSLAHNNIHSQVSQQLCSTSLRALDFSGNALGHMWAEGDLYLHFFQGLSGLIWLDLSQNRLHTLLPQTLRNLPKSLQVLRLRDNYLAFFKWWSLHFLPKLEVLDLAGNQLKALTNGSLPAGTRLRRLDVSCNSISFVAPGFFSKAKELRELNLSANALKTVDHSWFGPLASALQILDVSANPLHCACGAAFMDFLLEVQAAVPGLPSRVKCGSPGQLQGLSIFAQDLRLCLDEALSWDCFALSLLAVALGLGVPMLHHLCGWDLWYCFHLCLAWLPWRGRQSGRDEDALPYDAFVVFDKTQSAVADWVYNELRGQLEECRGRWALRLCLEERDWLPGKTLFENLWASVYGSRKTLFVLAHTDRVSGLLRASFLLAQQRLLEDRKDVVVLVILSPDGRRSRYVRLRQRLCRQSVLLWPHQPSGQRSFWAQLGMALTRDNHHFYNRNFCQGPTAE
Experimental: (§1) TLR7/8/9 Inhibition Reporter Assays
(§2) HEK-Blue™-cells (Invivogen) overexpressing human TLR7, TLR8 or TLR9 receptors were used for screening inhibitors of these receptors using an inducible SEAP (secreted embryonic alkaline phosphatase) reporter gene under the control of the IFN-β minimal promoter fused to five NF-κB and AP-1-binding sites. Briefly, cells are seeded into Greiner 384 well plates (15000 cells per well for TLR7, 20,000 for TLR8 and 25,000 for TLR9) and then treated with test compounds in DMSO to yield a final dose response concentration range of 0.05 nM-50 μM. After a 30 minute compound pre-treatment at room temperature, the cells are then stimulated with a TLR7 ligand (gardiquimod at a final concentration of 7.5 μM), TLR8 ligand (R848 at a final concentration of 15.9 μM) or TLR9 ligand (ODN2006 at a final concentration of 5 nM) to activate NF-κB and AP-1 which induce the production of SEAP. After a 22 hour incubation at 37° C., 5% CO2, SEAP levels are determined with the addition of HEK-Blue™ Detection reagent (Invivogen), a cell culture medium that allows for detection of SEAP, according to manufacturer's specifications. The percent inhibition is determined as the % reduction in the HEK-Blue signal present in wells treated with agonist plus DMSO alone compared to wells treated with a known inhibitor.

human TLR7 = target: T2, human TLR7 (Homo sapiens, UniProt Q9NYK1); assay: TLR7 inhibition reporter assay (HEK-Blue SEAP reporter); assay type: cell-based; conditions: HEK-Blue cells overexpressing human TLR7; gardiquimod 7.5 μM; 22 hour incubation
T2 construct: host or cells: HEK-Blue cells
T2 sequence (Q9NYK1 27-1049): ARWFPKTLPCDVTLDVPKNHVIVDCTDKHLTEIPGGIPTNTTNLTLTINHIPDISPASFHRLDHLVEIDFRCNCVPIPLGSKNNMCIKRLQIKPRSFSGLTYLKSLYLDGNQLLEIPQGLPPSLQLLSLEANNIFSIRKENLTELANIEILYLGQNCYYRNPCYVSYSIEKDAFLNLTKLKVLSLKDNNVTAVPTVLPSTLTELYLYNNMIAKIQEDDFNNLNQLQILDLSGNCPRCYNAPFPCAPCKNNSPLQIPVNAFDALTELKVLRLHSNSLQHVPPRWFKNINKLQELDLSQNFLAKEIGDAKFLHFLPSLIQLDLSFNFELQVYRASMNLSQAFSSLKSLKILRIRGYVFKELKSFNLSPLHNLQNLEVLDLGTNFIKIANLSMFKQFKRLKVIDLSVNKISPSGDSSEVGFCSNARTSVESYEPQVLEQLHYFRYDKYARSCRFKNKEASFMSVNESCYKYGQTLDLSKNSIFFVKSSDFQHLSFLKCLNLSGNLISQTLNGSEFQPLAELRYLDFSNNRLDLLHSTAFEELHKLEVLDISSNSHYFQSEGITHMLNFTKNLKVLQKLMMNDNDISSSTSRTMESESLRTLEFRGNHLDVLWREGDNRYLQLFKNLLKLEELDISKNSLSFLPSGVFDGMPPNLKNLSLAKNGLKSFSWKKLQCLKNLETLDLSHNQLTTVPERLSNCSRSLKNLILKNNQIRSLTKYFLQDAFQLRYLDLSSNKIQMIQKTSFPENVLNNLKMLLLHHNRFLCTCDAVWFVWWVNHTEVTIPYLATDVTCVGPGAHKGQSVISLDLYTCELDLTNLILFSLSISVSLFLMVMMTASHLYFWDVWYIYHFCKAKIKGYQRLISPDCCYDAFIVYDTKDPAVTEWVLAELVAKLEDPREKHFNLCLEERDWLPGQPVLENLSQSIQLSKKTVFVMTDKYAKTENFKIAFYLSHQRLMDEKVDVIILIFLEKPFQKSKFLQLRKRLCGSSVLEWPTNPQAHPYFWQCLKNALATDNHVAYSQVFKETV
Experimental: as §1, §2

Structure (SMILES)	IC50 (human TLR9)	IC50 (human TLR7)
CCc1c(-c2ccc(OC)c(OC)c2)[nH]c2ccc(N3CCC(OC4CCNCC4)CC3)cc12 [Example 132, 2-(3,4-dimethoxyphenyl)-3-ethyl-5-(4-(piperidin-4-yloxy)piperidin-1-yl)-1H-indole]	1050 nM	250 nM
CCc1c(-c2ccnc(OC)c2)[nH]c2ccc(N3CCN(CCNC)CC3)cc12 [Example 137, 2-(4-(3-ethyl-2-(2-methoxypyridin-4-yl)-1H-indol-5-yl)piperazin-1-yl)-N-methylethan-1-amine]	2960 nM	70 nM
CCc1c(-c2ccc(OC)c(OC)c2)[nH]c2ccc(N3CCN(CCNC)CC3)cc12 [Example 140, 2-(4-(2-(3,4-dimethoxyphenyl)-3-ethyl-1H-indol-5-yl)piperazin-1-yl)-N-methylethan-1-amine]	3940 nM	235 nM
CCN1CCC(N2CCN(c3ccc4[nH]c(-c5ccnc6[nH]ccc56)c(C)c4c3)CC2)CC1 [Example 145, 4-(5-(4-(1-ethylpiperidin-4-yl)piperazin-1-yl)-3-methyl-1H-indol-2-yl)-1H-pyrrolo[2,3-b]pyridine]	197 nM	2460 nM
CCc1c(-c2ccnc(C)c2)[nH]c2ccc(N3CCN(C4CCN(CC(C)C)CC4)CC3)cc12 [Example 152, 3-ethyl-5-(4-(1-isobutylpiperidin-4-yl)piperazin-1-yl)-2-(2-methylpyridin-4-yl)-1H-indole]	342 nM	2220 nM
CC(C)c1c(-c2ccnc3[nH]ncc23)[nH]c2ccc(N3CCN(C4CCN(C(C)C)CC4)CC3)cc12 [Example 167, 4-(3-isopropyl-5-(4-(1-isopropylpiperidin-4-yl)piperazin-1-yl)-1H-indol-2-yl)-1H-pyrazolo[3,4-b]pyridine]	411 nM	5180 nM
CCc1c(-c2ccc(OC)c(OC)c2)[nH]c2ccc(N3CCCN(CCNC)CC3)cc12 [Example 178, 2-(4-(2-(3,4-dimethoxyphenyl)-3-ethyl-1H-indol-5-yl)-1,4-diazepan-1-yl)-N-methylethan-1-amine]	2300 nM	1040 nM
CCc1c(-c2ccc(OC)c(OC)c2)[nH]c2ccc(N3CCC(OC4CCN(CC)CC4)CC3)cc12 [Example 188, 2-(3,4-dimethoxyphenyl)-3-ethyl-5-(4-((1-ethylpiperidin-4-yl)oxy)piperidin-1-yl)-1H-indole]	986 nM	161 nM
Cc1c(-c2ccnc3[nH]ccc23)[nH]c2ccc(N3CCC4(CCN(Cc5cccn5C)CC4)CC3)cc12 [Example 189, 3-((1-methyl-1H-pyrrol-2-yl)methyl)-9-(3-methyl-2-(1H-pyrrolo[2,3-b]pyridin-4-yl)-1H-indol-5-yl)-3,9-diazaspiro[5.5]undecane]	441 nM	16100 nM
CCc1c(-c2ccc(OC)c(OC)c2)[nH]c2ccc(N3CCC(OC4CCN(C5CC(C)(C)NC(C)(C)C5)CC4)CC3)cc12 [Example 193, 2-(3,4-dimethoxyphenyl)-3-ethyl-5-(4-((2′,2′,6′,6′-tetramethyl-[1,4′-bipiperidin]-4-yl)oxy)piperidin-1-yl)-1H-indole]	546 nM	81 nM

More lines, now with the values ahead:

IC50 (human TLR9)	IC50 (human TLR7)	Structure (SMILES)
1520 nM	181 nM	COc1ccc(-c2[nH]c3ccc(N4CCC(C5CCN(Cc6ccsc6)CC5)CC4)cc3c2C(C)C)cc1OC [Example 98, 2-(3,4-dimethoxyphenyl)-3-isopropyl-5-(1′-(thiophen-3-ylmethyl)-[4, 4′-bipiperidin]-1-yl)-1H-indole]
1010 nM	102 nM	COc1ccc(-c2[nH]c3ccc(N4CCC(N5CCN(CCN6CCCC6)CC5)CC4)cc3c2C(C)C)cc1OC [Example 100, 2-(3,4-dimethoxyphenyl)-3-isopropyl-5-(4-(4-(2-(pyrrolidin-1-yl)ethyl)piperazin-1-yl)piperidin-1-yl)-1H-indole]
1900 nM	1350 nM	COc1ccc(-c2[nH]c3ccc(N4CCC(N5CCN(Cc6ccc(C)cc6)CC5)CC4)cc3c2C(C)C)cc1OC [Example 101, 2-(3,4-dimethoxyphenyl)-3-isopropyl-5-(4-(4-(4-methylbenzyl)piperazin-1-yl)piperidin-1-yl)-1H-indole]
1690 nM	281 nM	COc1ccc(-c2[nH]c3ccc(N4CCC(N5CCCN(C)CC5)CC4)cc3c2C(C)C)cc1OC [Example 123, 2-(3,4-dimethoxyphenyl)-3-isopropyl-5-(4-(4-methyl-1,4-diazepan-1-yl)piperidin-1-yl)-1H-indole]
758 nM	376 nM	CCc1c(-c2ccc(OC)c(OC)c2)[nH]c2ccc(NC3CCN(C4CCN(C)CC4)CC3)cc12 [Example 125, 2-(3,4-dimethoxyphenyl)-3-ethyl-N-(1′-methyl-[1,4′-bipiperidin]-4-yl)-1H-indol-5-amine]
1100 nM	831 nM	CCc1c(-c2ccc(OC)c(OC)c2)[nH]c2ccc(N3CCCN(C4CCN(C)CC4)CC3)cc12 [Example 179, 2-(3,4-dimethoxyphenyl)-3-ethyl-5-(4-(1-methylpiperidin-4-yl)-1,4-diazepan-1-yl)-1H-indole]
652 nM	537 nM	CCc1c(-c2ccc(OC)c(OC)c2)[nH]c2ccc(N3CCCN(C4CCN(C(C)C)CC4)CC3)cc12 [Example 180, 2-(3,4-dimethoxyphenyl)-3-ethyl-5-(4-(1-isopropylpiperidin-4-yl)-1,4-diazepan-1-yl)-1H-indole]

From patent US11306092B2, “Amino indole compounds useful as TLR inhibitors” (BRISTOL-MYERS SQUIBB COMPANY, priority 2017, dated 2022)
